Reference: publication PMC12675575, “A BRET biosensor for measuring uncompetitive engagement of PRMT5 complexes in cells” (Nature Communications, 2025)
pEC50: −log10 of the molar value. “And” between values parts separate entries of the source, which are not always exact repeats. Identical values can stand only once.

Tests used:
[1] = target: NLuc-PRMT5 (Homo sapiens, UniProt O14744); assay: SAM titration against CBH-002 in HEK293 cell lysate (linear range of SAM detection); type: binding; design: host or cells: HEK293 (live cells; digitonin lysate for the SAM titration); conditions: for pEC50: Figure S3B; for BRET signal, CBH-002 titration (Figure S3A): Log[CBH-002]
Chain of NLuc-PRMT5 (O14744 whole entry): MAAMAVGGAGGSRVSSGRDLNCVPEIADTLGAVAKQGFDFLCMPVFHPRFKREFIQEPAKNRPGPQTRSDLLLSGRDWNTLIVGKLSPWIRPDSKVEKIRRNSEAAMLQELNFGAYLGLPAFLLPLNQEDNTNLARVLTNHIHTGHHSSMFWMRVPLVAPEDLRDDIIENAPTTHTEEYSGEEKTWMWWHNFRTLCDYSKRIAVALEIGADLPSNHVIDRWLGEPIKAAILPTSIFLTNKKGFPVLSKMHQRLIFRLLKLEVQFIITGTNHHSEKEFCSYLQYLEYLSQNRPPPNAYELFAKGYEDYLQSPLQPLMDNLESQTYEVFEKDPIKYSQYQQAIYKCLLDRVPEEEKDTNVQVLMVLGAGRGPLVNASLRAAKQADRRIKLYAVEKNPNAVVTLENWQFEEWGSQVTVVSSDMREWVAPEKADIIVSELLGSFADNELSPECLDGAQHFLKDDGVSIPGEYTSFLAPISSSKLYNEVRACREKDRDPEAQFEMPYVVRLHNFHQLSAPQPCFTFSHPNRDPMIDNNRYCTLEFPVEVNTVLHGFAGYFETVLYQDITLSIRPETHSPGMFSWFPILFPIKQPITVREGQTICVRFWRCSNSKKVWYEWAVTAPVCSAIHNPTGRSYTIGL
Chain of NLuc-PRMT5 (Q9BQA1 whole entry partner): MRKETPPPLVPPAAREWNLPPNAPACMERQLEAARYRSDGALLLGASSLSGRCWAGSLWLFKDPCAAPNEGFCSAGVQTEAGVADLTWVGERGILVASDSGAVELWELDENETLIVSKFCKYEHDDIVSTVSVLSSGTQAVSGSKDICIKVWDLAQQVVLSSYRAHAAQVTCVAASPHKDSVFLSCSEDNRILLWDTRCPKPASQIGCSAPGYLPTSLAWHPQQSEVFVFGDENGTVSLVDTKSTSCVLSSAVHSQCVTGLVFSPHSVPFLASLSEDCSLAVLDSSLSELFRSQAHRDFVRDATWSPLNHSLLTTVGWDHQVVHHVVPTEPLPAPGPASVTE
Method: To determine the linear range of SAM detection, HEK293 cells expressing NLuc-PRMT5 were lysed by addition of a 10x digitonin solution (Sigma), 500 µg/mL in Opti-MEM) and treated with a 1 mM, 4-fold, 11 pt dose-response series of SAM (Sigma) and a 1 µM 2-fold, 8 pt dose-response series of CBH-002. Lysate was incubated at RT for 30 min prior to reading BRET. Data was normalized using Eq. (2) above, with BRETMIN = BRET signal at lowest [CBH-002] + 0 µM SAM, and BRETMAX = BRET signal at 1 µM CBH-002 + 1 mM SAM. Data were fit using Eq. (3), and CBH-002 EC50 was plotted against [SAM] to determine the linear range of detection.

[2] = target: T1, BRD9 (Homo sapiens, UniProt Q9H8M2); assay: CBH-002 affinity curve, HEK293, NL-BRD9 fusion (nuclear control); type: cell-based; design: BRET, CBH-002 + DMSO / BRET, CBH-002 + GSK3326595: unit not given here; conditions: for BRET, CBH-002 + DMSO / BRET, CBH-002 + GSK3326595: Figure S2F NL-BRD9, log([CBH-002])
T1 construct: host or cells: HEK293
T1 sequence (Q9H8M2 1-597): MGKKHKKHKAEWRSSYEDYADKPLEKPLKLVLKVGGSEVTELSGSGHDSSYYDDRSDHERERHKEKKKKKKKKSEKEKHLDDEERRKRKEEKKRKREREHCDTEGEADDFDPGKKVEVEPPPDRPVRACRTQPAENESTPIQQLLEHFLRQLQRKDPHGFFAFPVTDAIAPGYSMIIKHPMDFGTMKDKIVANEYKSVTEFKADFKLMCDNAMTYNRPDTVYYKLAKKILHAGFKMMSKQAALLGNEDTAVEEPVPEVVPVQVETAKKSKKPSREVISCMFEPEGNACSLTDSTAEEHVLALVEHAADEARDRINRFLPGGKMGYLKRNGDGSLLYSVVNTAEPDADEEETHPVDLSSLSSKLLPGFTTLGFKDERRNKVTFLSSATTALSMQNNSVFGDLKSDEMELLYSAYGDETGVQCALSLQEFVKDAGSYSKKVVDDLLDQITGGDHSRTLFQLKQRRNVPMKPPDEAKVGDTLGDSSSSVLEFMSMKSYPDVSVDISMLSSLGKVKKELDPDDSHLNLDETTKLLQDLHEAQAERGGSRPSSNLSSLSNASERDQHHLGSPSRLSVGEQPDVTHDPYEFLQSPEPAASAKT
Method: HEK293 cells (ATCC) were cultured in DMEM (Thermo Fisher) + 10% (v/v) FBS (Seredigm), and HCT116 cells (Horizon Discovery, #PAR-034 and #R02-033) were cultured in McCoy’s 5A (Thermo Fisher) + 10% FBS, with incubation in a humidified, 37 °C/5% CO2 incubator. Cells were split 1–3 days prior to performing experiments and used at roughly 80% confluency. […] Cells were transfected according to the manufacturer’s protocol using FuGENE HD (Promega). NanoLuc fusion DNA was diluted into Transfection Carrier DNA (Promega) in Opti-MEM at a ratio of 1:9 (mass/mass), and FuGENE HD was added at a ratio of 1:3 (μg DNA:μL lipid). For experiments using WDR77, untagged WDR77 DNA (Promega) was used in place of Carrier DNA. Formed complexes were combined with cells resuspended to a density of 2 × 10^5 cells/mL in Opti-MEM + 1% FBS at a ratio of 1:20 (vol:vol). Cells were plated into a flask and incubated at 37 °C in a humidified 5% CO2 atmosphere for 18–24 h, before being lifted and seeded into 96-well non-binding surface-treated plates (Corning). Cells were seeded at a density of 2 × 10^5 cells/mL in Opti-MEM + 1% FBS in 100 μL (96-well). The BRET probe CBH-002 was prepared first as a 100× stock in 100% DMSO (Sigma) and then diluted to a 20× stock in NanoBRET Tracer Dilution buffer (Promega). Test compounds were prepared as 1000× stocks in 100% DMSO and diluted to 10× stocks in Opti-MEM to prepare working stocks. […] NanoBRET Complete 3x Substrate was prepared by combining Nano-Glo Substrate and Extracellular NanoLuc Inhibitor in Opti-MEM, according to the manufacturer’s protocol (Promega). NanoBRET Complete 3× Substrate was added to cells and plates were measured on either a PheraSTAR FSX equipped with 450 nm (donor) and 610 nm (acceptor) filters, or a GloMAX Discover equipped with 450/8 nm BP (donor) and 600 nm LP (acceptor) filters, using a 0.3 s integration time.
EC50 values were obtained by fitting the BRET probe and compound affinity curves to a sigmoidal four-parameter fit model in Graphpad Prism:1 Y=Ymin+Ymax−Ymin/1+10^LogEC50−Xh where h is the Hill Slope.

## O=C(CCc1ccc2n1[B-](F)(F)[N+]1=C(c3ccc[nH]3)C=CC1=C2)NCCCCC(=O)N1CCC(Nc2cc(C(=O)NC[C@H](O)CN3CCc4ccccc4C3)ncn2)CC1 [CBH-002]
[1]; CBH-002 EC50 at [SAM] 0 uM
  pEC50: 5.97
[1]; CBH-002 EC50 at [SAM] 0.001 uM
  pEC50: 5.92
[1]; CBH-002 EC50 at [SAM] 0.004 uM
  pEC50: 6.14
[1]; CBH-002 EC50 at [SAM] 0.06 uM
  pEC50: 6.63
[1]; CBH-002 EC50 at [SAM] 250 uM
  pEC50: 8.00
[1]; CBH-002 EC50 at [SAM] 1000 uM
  pEC50: 8.00
[1]; uM 0.00, [SAM] 0 uM
  BRET signal, CBH-002 titration (Figure S3A): 59.75 and 46.60 and 39.12
[1]; uM 0.00, [SAM] 0.001 uM
  BRET signal, CBH-002 titration (Figure S3A): 52.48 and 47.57 and 38.98
[1]; uM 0.00, [SAM] 0.004 uM
  BRET signal, CBH-002 titration (Figure S3A): 78.50 and 49.28 and 41.20
[1]; uM 0.00, [SAM] 0.06 uM
  BRET signal, CBH-002 titration (Figure S3A): 102.12 and 63.12 and 56.12
[1]; uM 0.00, [SAM] 250 uM
  BRET signal, CBH-002 titration (Figure S3A): 116.71 and 100.65 and 98.69
[1]; uM 0.00, [SAM] 1000 uM
  BRET signal, CBH-002 titration (Figure S3A): 100.00
[1]; uM -0.60, [SAM] 0 uM
  BRET signal, CBH-002 titration (Figure S3A): 35.92 and 26.69 and 20.78
[1]; uM -0.60, [SAM] 0.001 uM
  BRET signal, CBH-002 titration (Figure S3A): 38.65 and 26.89 and 21.61
[1]; uM -0.60, [SAM] 0.004 uM
  BRET signal, CBH-002 titration (Figure S3A): 42.58 and 27.46 and 22.13
[1]; uM -0.60, [SAM] 250 uM
  BRET signal, CBH-002 titration (Figure S3A): 110.40 and 94.49 and 89.50
[1]; uM -0.60, [SAM] 1000 uM
  BRET signal, CBH-002 titration (Figure S3A): 106.63 and 91.94 and 90.40
[1]; uM -1.20, [SAM] 0 uM
  BRET signal, CBH-002 titration (Figure S3A): 18.29 and 13.11 and 9.32
[1]; uM -1.20, [SAM] 250 uM
  BRET signal, CBH-002 titration (Figure S3A): 100.06 and 80.70 and 74.62
[1]; uM -1.20, [SAM] 1000 uM
  BRET signal, CBH-002 titration (Figure S3A): 101.04 and 80.00 and 77.33
[1]; uM -1.81, [SAM] 250 uM
  BRET signal, CBH-002 titration (Figure S3A): 80.32 and 48.77 and 48.32
[1]; uM -1.81, [SAM] 1000 uM
  BRET signal, CBH-002 titration (Figure S3A): 90.24 and 46.55 and 49.90
[2]; uM 0.04576
  BRET, CBH-002 + DMSO: 1.963 and 1.6096 and 1.753
  BRET, CBH-002 + GSK3326595: 1.941 and 1.894 and 1.502
[2]; uM 0.52288
  BRET, CBH-002 + DMSO: 4.746 and 4.673 and 4.368
  BRET, CBH-002 + GSK3326595: 4.553 and 4.659 and 4.5888
[2]; uM 1
  BRET, CBH-002 + DMSO: 11.9924 and 12.071 and 11.0213
  BRET, CBH-002 + GSK3326595: 12.0831 and 11.2046 and 11.118
[2]; uM -0.43136
  BRET, CBH-002 + DMSO: 0.6619 and 0.5821 and 0.5347
  BRET, CBH-002 + GSK3326595: 0.7878 and 0.6009 and 0.5811
[2]; HEK293, NL-BRD9
  CBH-002 engagement at BRD9 (printed BDR9): did not show engagement
